Test results: patent US20170057955A1, “Pyridopyrimidinone Compounds for Modulating the Catalytic Activity of Histone Lysine Demethylases (KDMs)” (Dong-A Socio Holdings Co., Ltd., priority 2015, published 2017)

Target: T1, Recombinant human JARID1B/KDM5B (Homo sapiens, UniProt Q9UGL1)
T1 construct: purchased Active Motif 31432; host or cells: Sf9 insect cells
Experiment: LANCE Ultra TR-FRET JARID1B (KDM5B) demethylase inhibition assay
Format: biochemical
Details: 0.1 uM of test-compounds, FLAG-JARID1B, 500 nM biotinylated H3K4me3 peptide substrate, 30 min at room temperature
How it was run: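 FLAG-tagged JARID1B from Sf9 cells, pre-incubated 5 min with 0.1 uM compound (1% DMSO), then 500 nM biotinylated H3K4me3 peptide, 500 uM 2-OG, 25 uM Fe(II), 2 mM ascorbate in pH 7.5 Hepes buffer. After 30 min at room temperature, H3K4me2/1 product detected by TR-FRET (665/590 nm ratio).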

T1 sequence (Q9UGL1 whole entry): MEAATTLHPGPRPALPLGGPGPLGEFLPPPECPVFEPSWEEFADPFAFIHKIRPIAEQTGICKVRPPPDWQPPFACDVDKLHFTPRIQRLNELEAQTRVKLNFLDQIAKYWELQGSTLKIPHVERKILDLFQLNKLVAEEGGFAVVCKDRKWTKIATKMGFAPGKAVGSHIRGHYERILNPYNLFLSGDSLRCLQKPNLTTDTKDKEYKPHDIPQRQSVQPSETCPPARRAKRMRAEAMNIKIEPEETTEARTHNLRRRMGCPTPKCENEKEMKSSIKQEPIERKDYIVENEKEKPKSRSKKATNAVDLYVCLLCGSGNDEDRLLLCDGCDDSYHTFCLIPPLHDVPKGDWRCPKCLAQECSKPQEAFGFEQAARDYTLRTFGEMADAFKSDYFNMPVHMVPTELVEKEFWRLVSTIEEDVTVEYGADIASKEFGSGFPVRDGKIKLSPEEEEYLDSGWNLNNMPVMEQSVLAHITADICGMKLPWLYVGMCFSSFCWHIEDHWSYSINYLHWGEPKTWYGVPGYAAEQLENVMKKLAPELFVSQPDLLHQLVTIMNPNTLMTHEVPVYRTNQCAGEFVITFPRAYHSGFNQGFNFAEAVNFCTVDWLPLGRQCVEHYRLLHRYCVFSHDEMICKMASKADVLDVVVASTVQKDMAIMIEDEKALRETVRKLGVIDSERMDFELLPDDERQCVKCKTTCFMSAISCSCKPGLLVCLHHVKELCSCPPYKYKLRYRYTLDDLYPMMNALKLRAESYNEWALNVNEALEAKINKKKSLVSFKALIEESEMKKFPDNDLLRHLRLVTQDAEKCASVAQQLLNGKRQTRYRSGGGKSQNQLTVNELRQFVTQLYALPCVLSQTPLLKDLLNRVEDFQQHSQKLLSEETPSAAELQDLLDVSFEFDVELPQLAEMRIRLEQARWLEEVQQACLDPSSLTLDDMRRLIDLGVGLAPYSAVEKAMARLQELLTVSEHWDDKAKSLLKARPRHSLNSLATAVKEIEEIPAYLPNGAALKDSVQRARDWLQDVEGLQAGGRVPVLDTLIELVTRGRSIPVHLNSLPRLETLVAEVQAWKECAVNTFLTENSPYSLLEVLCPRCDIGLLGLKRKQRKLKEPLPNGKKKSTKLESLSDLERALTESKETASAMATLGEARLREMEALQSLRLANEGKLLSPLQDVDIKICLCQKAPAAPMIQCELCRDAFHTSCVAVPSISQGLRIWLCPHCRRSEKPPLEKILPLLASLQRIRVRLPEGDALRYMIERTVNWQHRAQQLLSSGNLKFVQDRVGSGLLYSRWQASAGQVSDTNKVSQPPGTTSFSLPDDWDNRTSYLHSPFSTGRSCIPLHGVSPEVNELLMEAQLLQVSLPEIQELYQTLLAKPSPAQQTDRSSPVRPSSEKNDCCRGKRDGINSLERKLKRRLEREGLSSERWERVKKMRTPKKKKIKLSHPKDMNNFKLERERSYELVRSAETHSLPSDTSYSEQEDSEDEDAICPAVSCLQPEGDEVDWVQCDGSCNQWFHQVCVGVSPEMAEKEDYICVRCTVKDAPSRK

Row | inhibition at 0.1 µM | Compound
1 | ≥ 50% | O=c1[nH]c(COc2ccc(F)c(Cl)c2)nc2c(-c3csc(NCCN4CCOCC4)n3)nccc12 [Compound 82, 2-((3-chloro-4-fluorophenoxy)methyl)-8-(2-((2-morpholinoethyl)amino)thiazol-4-yl)pyrido[3,4-d]pyrimidin-4(3H)-one]
2 | 20 to 50% | O=c1[nH]c(COc2ccc(F)c(Cl)c2)nc2c(-c3csc(NCC4CCNCC4)n3)nccc12 [Compound 99, 2-((3-chloro-4-fluorophenoxy)methyl)-8-(2-((piperidin-4-ylmethyl)amino)thiazol-4-yl)pyrido[3,4-d]pyrimidin-4(3H)-one]
3 | 20 to 50% | Nc1nn(-c2nccc3c(=O)[nH]cnc23)cc1-c1ccc(N2CCNCC2)nc1 [Compound 14, 8-(3-amino-4-(6-(piperazin-1-yl)pyridin-3-yl)-1H-pyrazol-1-yl)pyrido[3,4-d]pyrimidin-4(3H)-one]
4 | < 20% | CC(c1ccccc1)c1nc2c(-c3csc(NCCO)n3)nccc2c(=O)[nH]1 (centres unmarked) [Compound 141, 8-(2-((2-hydroxyethyl)amino)thiazol-4-yl)-2-(1-phenylethyl)pyrido[3,4-d]pyrimidin-4(3H)-one]
5 | 20 to 50% | Cn1cnc(-c2nccc3c(=O)[nH]c(COc4ccc(Cc5ccccc5)cc4)nc23)c1 [Compound 70, 2-((4-benzylphenoxy)methyl)-8-(1-methyl-1H-imidazol-4-yl)pyrido[3,4-d]pyrimidin-4(3H)-one]
6 | < 20% | Cn1cc(-c2cnn(-c3nccc4c(=O)[nH]cnc34)c2)cn1 [Compound 11, 8-(1′-methyl-1H,1′H-[4,4′-bipyrazol]-1-yl)pyrido[3,4-d]pyrimidin-4(3H)-one]

The next lines start with the molecule.

Row | Compound | inhibition at 0.1 µM
7 | O=c1[nH]c(COCc2ccccc2)nc2c(-c3csc(NC4CCN(Cc5ccccc5)CC4)n3)nccc12 [Compound 144, 2-((benzyloxy)methyl)-8-(2-((1-benzylpiperidin-4-yl)amino)thiazol-4-yl)pyrido[3,4-d]pyrimidin-4(3H)-one] | < 20%
8 | COCCN1CCC(CNc2nc(-c3nccc4c(=O)[nH]c(COCc5ccccc5)nc34)cs2)CC1 [Compound 154, 2-((benzyloxy)methyl)-8-(2-(((1-(2-methoxyethyl)piperidin-4-yl)methyl)amino)thiazol-4-yl)pyrido[3,4-d]pyrimidin-4(3H)-one] | < 20%
9 | O=c1[nH]c(Cc2ccccc2)nc2c(-c3csc(NCCO)n3)nccc12 [Compound 139, 2-benzyl-8-(2-((2-hydroxyethyl)amino)thiazol-4-yl)pyrido[3,4-d]pyrimidin-4(3H)-one] | < 20%
10 | O=c1[nH]c(COCc2ccccc2)nc2c(-c3csc(NCCO)n3)nccc12 [Compound 142, 2-((benzyloxy)methyl)-8-(2-((2-hydroxyethyl)amino)thiazol-4-yl)pyrido[3,4-d]pyrimidin-4(3H)-one] | 20 to 50%
11 | O=C(Nc1nc(-c2nccc3c(=O)[nH]c(COc4ccc(F)c(Cl)c4)nc23)cs1)c1ccccc1 [Compound 124, N-(4-(2-((3-chloro-4-fluorophenoxy)methyl)-4-oxo-3,4-dihydropyrido[3,4-d]pyrimidin-8-yl)thiazol-2-yl)benzamide] | < 20%
